This is an account of results in patent US4567192A, “Acylaminophenol derivatives” (Sandoz Ltd., priority 1983, dated 1986).

Series [1] in a line: Deaths after oral administration to mice. Format: in vivo, mouse. As to conditions: 1'000 mg/kg p.o.
The next series concerns inflamed rat hind-paw. The experiment in a line: Test II: Randall-Selitto Test on the inflamed rat hind-paw. As to conditions: po. Type of series: in vivo. The text has this:
(II) The Randall-Selitto Test on the inflamed rat hind-paw (Arch. Int. Pharmacodyn. 61, 409-419, 1957).
(§1) As previously indicated, required daily dosages will depend inter al. on the particular compound of the invention employed. Results obtained for the compounds (L)-(4-acetamido-phenyl)-2-oxo-thiazolidine-4-carboxylate (compound A) in accordance with the present invention and the known analgesic paracetamol (compound B) in tests I and II above are shown in the following table.

The test system of series [2] is GOT (Glutamate-Oxalacetate-Transaminase). Kind of series: Hepatoxicity: GOT (Glutamate-Oxalacetate-Transaminase) level in mouse serum. Type of series: in vivo. As for the experimental part:
(§2) Thus on administration of 1'000 mg/kg p.o. of COMPOUND A in accordance with the invention to mice, no increase in GOT and GPT levels over levels in untreated controls (40 to 80 units/liter) is observed and no deaths are recorded. In contrast on administration of compound B (paracetamol) at a dosage of 560 mg/kg p.o., GOT levels are elevated to 3'800 units/liter and GPT levels are elevated to 3'000 units and on administration of compound B at a dosage of 1'000 mg/kg p.o., death of 2 out of 5 test animals is recorded.

Series [3] deals with GPT (Glutamate-Pyruvate-Transaminase). Kind of series: Hepatoxicity: GPT (Glutamate-Pyruvate-Transaminase) level in mouse serum. Format: in vivo. As for the experimental part:
as §2

Series [4] can be described thus: Test I: arthritis pain test (method of A. W. Pircio et al.). As to conditions: po. Type of series: in vivo.
Source text: (I) The arthritis pain test (based on the method of A. W. Pircio et al., Eur. J. Pharmacol. 31, 207-215, 1975); and
as §1

For series [5] the following is noted: high dosages, cited from earlier work.
Where [6] appears, read: mice, 1'000 mg/kg p.o., untreated controls 40 to 80 units/liter.

One may read the ED50 as the midpoint of the dose-response relation.

For the compound `CC(=O)Nc1ccc(OC(=O)[C@@H]2CSC(=O)N2)cc1` [COMPOUND A, (L)-(4-acetamido-phenyl)-2-oxo-thiazolidine-4-carboxylate], in series [1], the deaths result is given as “no deaths”. Moreover, the ED50 was 310 mg/kg in the series with inflamed rat hind-paw, approximately 162 mg/kg in series [4] (1 hr.), 162 mg/kg in series [4] (3 hrs.) and 264 mg/kg in series [4] (5 hrs.). Besides, the “increase in GOT levels over levels in untreated controls” value in series [2] (setting [6]) is on record as “no increase”. Also, in series [3] (setting [6]), the “increase in GPT levels over levels in untreated controls” value is “no increase”.
With `CC(=O)Nc1ccc(O)cc1` [COMPOUND B, N-(4-hydroxyphenyl)acetamide], the “death of test animals” value in series [1] is 2 out of 5. Also, the ED50 with inflamed rat hind-paw was found to be 203 mg/kg; in series [4] (1 hr.) it was 75 mg/kg; in series [4] (3 hrs.) it was 142 mg/kg; in series [4] (5 hrs.), 261 mg/kg. Moreover, the GOT levels in series [2] (mouse, in vivo, po, 560 mg/kg) is recorded as 3'800 units/liter. Further, the GPT levels in series [3] (mouse, in vivo, po, 560 mg/kg) was 3'000 units. The death result in series [5] (following liver damage) is reported as “may lead to death”. Moreover, the “damage of the liver” value in series [5] was “extensive damage of the liver”.
